Measured values taken from PMC7253457, “Nitrite modulates aminoglycoside tolerance by inhibiting cytochrome heme-copper oxidase in bacteria” (Communications Biology, 2020).

Assays:
[1] = target: T1, S. oneidensis cbb3 (heme-copper oxidase cbb3) (Shewanella oneidensis, UniProt Q8EEL5); details: read-out: IC50(NO2^-); 5 mM NADH as electron donor; ~70 μM O2; membranes of delta-cyd strain
T1 construct: gene ccoN
Text: oxygen consumption of membranes, O2 electrode on S. oneidensis cbb3 (heme-copper oxidase cbb3)

[2] = target: T2, bd (bd-type quinol oxidase) (Shewanella oneidensis, UniProt Q8EC58); details: read-out: IC50(NO2^-); 5 mM NADH as electron donor; ~70 μM O2; membranes of delta-cco strain
T2 construct: gene cydA
T2 sequence (Q8EC58 1-518): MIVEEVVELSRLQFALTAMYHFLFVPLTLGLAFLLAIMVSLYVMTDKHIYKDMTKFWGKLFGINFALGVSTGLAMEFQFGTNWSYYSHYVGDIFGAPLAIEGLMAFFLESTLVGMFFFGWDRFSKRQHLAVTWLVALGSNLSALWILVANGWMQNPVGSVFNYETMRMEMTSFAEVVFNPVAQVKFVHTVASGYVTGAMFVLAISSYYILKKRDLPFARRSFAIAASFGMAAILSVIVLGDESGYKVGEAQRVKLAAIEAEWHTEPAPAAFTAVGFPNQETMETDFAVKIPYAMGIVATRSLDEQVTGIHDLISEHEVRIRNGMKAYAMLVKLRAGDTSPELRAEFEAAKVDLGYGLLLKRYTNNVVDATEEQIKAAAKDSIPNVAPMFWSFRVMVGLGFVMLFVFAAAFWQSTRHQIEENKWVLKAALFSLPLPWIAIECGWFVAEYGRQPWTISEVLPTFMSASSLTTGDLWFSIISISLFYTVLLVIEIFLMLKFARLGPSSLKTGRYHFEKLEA
T2 sequence (Q8EC59 1-379 partner): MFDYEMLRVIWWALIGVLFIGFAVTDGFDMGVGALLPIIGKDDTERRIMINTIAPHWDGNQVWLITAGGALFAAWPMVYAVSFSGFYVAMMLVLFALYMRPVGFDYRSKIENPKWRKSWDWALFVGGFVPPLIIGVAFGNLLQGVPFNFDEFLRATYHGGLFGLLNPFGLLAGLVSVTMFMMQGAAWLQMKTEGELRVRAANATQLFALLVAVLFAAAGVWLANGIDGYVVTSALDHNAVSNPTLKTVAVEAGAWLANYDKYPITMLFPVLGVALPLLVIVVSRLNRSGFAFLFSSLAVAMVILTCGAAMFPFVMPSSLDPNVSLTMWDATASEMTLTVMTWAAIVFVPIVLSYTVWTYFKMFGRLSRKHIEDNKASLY
Text: oxygen consumption of membranes, O2 electrode on bd (bd-type quinol oxidase)

[3] = target: T3, S. aureus aa3 (cytochrome aa3 oxidase) (Staphylococcus aureus, UniProt Q7A699); test: biochemical
T3 construct: gene qoxB
T3 sequence (Q7A699 whole entry): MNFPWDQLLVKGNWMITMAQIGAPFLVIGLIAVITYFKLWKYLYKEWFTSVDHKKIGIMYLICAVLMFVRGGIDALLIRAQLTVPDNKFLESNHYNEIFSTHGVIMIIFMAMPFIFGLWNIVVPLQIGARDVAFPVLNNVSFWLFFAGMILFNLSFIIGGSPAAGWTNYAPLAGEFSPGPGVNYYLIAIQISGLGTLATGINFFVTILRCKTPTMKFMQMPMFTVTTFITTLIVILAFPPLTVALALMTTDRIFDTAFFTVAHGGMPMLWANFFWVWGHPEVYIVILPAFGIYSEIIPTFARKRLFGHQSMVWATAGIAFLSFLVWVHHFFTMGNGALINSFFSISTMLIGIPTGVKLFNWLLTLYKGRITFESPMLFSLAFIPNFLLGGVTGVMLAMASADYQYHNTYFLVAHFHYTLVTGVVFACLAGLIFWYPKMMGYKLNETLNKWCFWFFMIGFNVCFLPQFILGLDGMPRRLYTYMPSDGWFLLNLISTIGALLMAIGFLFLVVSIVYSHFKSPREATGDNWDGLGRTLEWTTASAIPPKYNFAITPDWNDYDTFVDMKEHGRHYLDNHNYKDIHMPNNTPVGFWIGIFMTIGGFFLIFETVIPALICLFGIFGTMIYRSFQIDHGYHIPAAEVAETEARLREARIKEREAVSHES
T3 sequence (Q7A698 20-366 partner): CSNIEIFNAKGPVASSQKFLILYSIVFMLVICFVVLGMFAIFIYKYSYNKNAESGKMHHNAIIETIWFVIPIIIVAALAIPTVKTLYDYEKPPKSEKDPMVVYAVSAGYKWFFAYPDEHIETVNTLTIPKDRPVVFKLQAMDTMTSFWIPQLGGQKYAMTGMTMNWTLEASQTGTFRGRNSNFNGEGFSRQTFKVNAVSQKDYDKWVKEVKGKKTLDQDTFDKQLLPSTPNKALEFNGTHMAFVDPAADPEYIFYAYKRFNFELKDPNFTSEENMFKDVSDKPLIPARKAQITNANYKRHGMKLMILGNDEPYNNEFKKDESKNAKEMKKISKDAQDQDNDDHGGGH
T3 sequence (Q7A6A0 whole entry partner): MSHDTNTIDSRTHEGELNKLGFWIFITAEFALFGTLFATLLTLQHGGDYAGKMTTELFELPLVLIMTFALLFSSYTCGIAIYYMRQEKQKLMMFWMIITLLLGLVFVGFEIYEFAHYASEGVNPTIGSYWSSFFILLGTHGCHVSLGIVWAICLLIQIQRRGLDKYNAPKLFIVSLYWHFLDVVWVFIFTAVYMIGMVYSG
T3 sequence (Q7A6A1 whole entry partner): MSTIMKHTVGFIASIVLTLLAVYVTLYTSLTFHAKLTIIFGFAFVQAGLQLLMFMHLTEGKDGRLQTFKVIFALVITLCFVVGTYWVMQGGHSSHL
Text: oxygen consumption of membranes, O2 electrode on S. aureus aa3 (cytochrome aa3 oxidase)

[4] = target: T4, E. coli bo3 (cytochrome bo3 oxidase) (Escherichia coli, UniProt P0ABI8); test: biochemical
T4 construct: gene cyoB
T4 sequence (P0ABI8 whole entry): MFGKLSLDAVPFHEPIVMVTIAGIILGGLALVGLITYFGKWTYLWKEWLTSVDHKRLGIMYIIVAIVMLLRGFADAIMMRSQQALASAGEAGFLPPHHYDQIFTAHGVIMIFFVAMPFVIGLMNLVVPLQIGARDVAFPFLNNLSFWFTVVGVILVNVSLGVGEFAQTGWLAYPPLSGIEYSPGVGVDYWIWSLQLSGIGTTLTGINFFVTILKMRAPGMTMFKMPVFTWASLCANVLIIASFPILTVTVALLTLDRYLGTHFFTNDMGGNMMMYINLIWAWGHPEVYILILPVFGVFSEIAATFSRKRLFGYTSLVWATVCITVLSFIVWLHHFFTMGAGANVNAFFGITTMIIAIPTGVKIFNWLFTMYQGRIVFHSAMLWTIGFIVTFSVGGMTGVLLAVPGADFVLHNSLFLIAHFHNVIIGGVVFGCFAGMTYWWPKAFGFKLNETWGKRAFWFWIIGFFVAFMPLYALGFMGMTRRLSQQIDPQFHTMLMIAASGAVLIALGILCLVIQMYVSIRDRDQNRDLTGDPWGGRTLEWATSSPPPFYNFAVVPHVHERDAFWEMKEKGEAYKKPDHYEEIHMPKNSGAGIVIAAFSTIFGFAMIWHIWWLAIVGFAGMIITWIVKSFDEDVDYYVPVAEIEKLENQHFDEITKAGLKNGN
T4 sequence (P0ABJ1 25-315 partner): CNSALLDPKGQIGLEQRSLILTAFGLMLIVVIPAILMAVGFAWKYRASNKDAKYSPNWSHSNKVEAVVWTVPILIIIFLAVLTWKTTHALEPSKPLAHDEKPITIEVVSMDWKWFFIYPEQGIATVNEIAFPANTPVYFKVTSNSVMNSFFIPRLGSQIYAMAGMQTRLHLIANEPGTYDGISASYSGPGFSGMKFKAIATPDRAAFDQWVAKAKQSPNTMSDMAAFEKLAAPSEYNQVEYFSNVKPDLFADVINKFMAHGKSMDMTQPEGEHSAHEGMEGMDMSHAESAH
T4 sequence (P0ABJ3 whole entry partner): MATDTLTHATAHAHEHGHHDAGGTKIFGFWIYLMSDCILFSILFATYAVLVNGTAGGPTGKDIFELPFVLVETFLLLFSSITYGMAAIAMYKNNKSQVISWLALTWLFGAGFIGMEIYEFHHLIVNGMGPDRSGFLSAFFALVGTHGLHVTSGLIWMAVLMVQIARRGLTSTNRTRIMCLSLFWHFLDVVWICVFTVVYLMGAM
T4 sequence (P0ABJ6 whole entry partner): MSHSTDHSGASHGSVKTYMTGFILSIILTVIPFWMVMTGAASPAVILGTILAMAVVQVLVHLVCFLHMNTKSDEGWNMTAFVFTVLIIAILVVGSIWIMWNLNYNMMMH
Text: oxygen consumption of membranes, O2 electrode on E. coli bo3 (cytochrome bo3 oxidase)

T1 sequence (Q8EEL5 1-478): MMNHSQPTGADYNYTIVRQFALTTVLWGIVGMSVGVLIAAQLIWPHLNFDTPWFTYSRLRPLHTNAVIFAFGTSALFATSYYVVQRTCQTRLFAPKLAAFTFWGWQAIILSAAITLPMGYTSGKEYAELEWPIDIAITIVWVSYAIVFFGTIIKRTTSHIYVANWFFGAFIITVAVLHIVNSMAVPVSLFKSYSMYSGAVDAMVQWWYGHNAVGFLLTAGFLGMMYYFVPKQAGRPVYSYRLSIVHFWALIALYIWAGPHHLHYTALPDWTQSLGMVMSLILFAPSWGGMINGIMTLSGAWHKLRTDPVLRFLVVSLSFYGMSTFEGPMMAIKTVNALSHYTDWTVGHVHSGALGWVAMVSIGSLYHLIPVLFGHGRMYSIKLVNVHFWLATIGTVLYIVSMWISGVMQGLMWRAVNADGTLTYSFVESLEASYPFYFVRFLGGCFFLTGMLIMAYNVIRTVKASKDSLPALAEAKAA
T1 sequence (Q8EEL6 1-208 partner): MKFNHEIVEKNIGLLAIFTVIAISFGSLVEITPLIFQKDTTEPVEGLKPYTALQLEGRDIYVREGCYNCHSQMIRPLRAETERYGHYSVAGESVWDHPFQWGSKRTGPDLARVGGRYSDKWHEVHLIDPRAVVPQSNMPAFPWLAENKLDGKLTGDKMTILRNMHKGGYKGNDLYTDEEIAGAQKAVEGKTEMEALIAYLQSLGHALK
T1 sequence (Q8EEL8 1-322 partner): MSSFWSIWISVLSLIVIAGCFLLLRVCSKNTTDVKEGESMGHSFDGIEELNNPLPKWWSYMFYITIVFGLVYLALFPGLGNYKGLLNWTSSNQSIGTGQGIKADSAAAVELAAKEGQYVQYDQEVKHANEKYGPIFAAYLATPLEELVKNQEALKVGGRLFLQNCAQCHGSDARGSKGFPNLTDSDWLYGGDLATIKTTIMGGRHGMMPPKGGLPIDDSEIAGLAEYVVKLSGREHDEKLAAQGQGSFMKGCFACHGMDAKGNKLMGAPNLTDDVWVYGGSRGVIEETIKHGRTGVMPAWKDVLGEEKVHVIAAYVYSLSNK
T1 sequence (Q8EEL7 1-58 partner): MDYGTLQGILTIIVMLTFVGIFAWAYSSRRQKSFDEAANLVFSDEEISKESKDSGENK

`O=NO` [nitrite] showed an IC50 [1] of 57 ± 6 µM, an IC50 [2] of 207 ± 18 µM and an IC50 [3] of 137 ± 15 µM. It also gave an IC50 [4] of 120 ± 13 µM.
